Measured values: US12128098B2, “Non-specific delayed-type hypersensitivity response to treat herpes simplex virus infection” (Squarex, LLC, priority 2015, dated 2024)
Values joined by “and” are separate entries in the source; they are usually repeats but may differ in a detail not shown here. Equal values may be shown once. “Also recorded” adds a separate entry of the source. Marks after values point to notes of the source that are not given here.

Assays:
warts = settings: intralesional injection together with antigens versus antigen alone; differences not statistically significant; US 20050175634; cited from earlier work
[1] = Presensitization and dose finding with DNCB solutions on the forearm (rash / erythema, DTH response); format: in vivo, human; settings: for erythema on forearm: sensitized subject
Source text: The subject then applied a 0.1%, 0.2%, and 0.3% solutions to separate small spots on the forearm.

[2] = tested on: HSV outbreak (cold sore on lower lip); assay: Treatment of an individual suffering from frequent and severe cold sores with topical DNCB at the site of the lesion; format: in vivo, human
Source text: The individual treated was one of the inventors. They are a person and was […] at the time of this treatment. The subject suffered from frequent cold sores on the lower lip. The outbreaks typically lasted 7-10 days and frequently longer. The subject had suffered from frequent cold sores most of their life. During the 6 months prior to this treatment, the outbreaks had been almost continuous. After getting over one outbreak, the next outbreak would begin often within a week.
In the morning they washed it off. A mild erythema in the area of the cold sore developed over 2-3 days and lasted a further 5 days, and the cold sore resolved in about 7 days, which was a typical duration for this individual or a slightly shorter duration than normal. […] Each outbreak would begin and completely resolve in one day. […] We think this may be because the immune system was recognizing not just the DNCB but also the herpes virus antigens with this second application. With the greater inflammation, the cold sore outbreak was worse than any of the outbreaks between the first and second DNCB treatments. […] The outbreak seemed to worsen as the inflammation associated with the DTH response worsened, and only lessened when the DTH response subsided.
When the outbreak subsided, the subject went another 6 months without any outbreaks to the present time.
For several months before and for the entire time described herein after the initial DNCB treatment, the subject took no antiviral medicines.

[3] = Clinical trial of SADBE: rash (erythema) from the sensitization dose; format: in vivo, human; settings: pooled treatment groups B and C, 2% SADBE in DMSO
Source text: Visit 1: Upon entering the study, patients are sensitized to squaric acid dibutyl ester (SADBE) by dipping a cotton-tipped swab in a 2% solution of SADBE in DMSO and swabbing a 1 cm^2 area on the forearm. Participants are told then to wait at least 2 weeks for their first treatment.

[4] = tested on: herpes labialis (HSV cold sore outbreaks); assay: Clinical trial: treatment of herpes labialis by squaric acid dibutyl ester, time to and proportion of cold sore outbreaks after the sensitization dose; format: in vivo, human; settings: for Average days to first outbreak after the sensitization dose: 120 days used if no outbreak in 120 days
Description: Thirty patients are recruited meeting the following criteria:
In a screening interview, vital signs are recorded, and information is collected on any medications the patient is currently taking, previous and current treatments for cold sores, severity and duration of cold sores.
[…] Participants are told then to wait at least 2 weeks for their first treatment.
Throughout the study, the participants are asked to maintain a subject diary, in which they record each day any symptoms they experience, including fever, swelling, pain, redness, itching, burning, the size of any lesions, and any medications taken.
Visit 2: After the 2-week period to allow development of sensitivity to SADBE, upon the beginning of his or her next outbreak (within 72 hours of the first signs of an outbreak), each participant is swabbed at the site of the herpes labialis lesion with a 0.5% solution of SADBE in DMSO.
Visit 3: Upon the next distinct outbreak at least 2 weeks after the previous treatment at visit 2, study diaries are collected. If the diary reflects redness, blistering, or burning greater than 0.5 cm beyond the clinical lesion with the previous SADBE treatment, the dosage of SADBE is decreased to 0.1%. If the diary reflects no redness or inflammation attributable to SADBE treatment, dosage is increased to 2%. Otherwise, dosage is maintained at 0.5%. Participants are swabbed at the site of the herpes labialis lesion with the SADBE solution.
If the hypersensitivity reaction produced by SADBE is excessive, patients are treated with a topical steroidal antiinflammatory cream. When a patient requests, outbreaks are treated with oral valacyclovir until the outbreak resolves.
For at least 6 months after visit 2, patients maintain their diaries. Every two months the diaries are collected.
A total of 46 patients have been enrolled in the study and have not dropped out.
The p value was calculated using the Fischer's two-tailed exact test.
The average days to the first outbreak after the sensitization dose was also measured. […] The A: placebo, 0% SADBE in DMSO.

[5] = third treatment, 0.1% DNCB solution on cold sore

**Q.** For “GM-CSF: cytokine used as immune response enhancer”, which “fraction of patients responding to treatment” value (warts) is on record?
**A.** The value was “A larger fraction of patients receiving interferon or GM-CSF together with the antigens responded to treatment than patients receiving antigen alone”.

**Q.** With interferon alpha as the compound, how does the “fraction of patients responding to treatment” value (warts) read?
**A.** The value was “A larger fraction of patients receiving interferon or GM-CSF together with the antigens responded to treatment than patients receiving antigen alone”.

**Q.** Which erythema on forearm ([1]; 0.1% DNCB solution) does the source give for `O=[N+]([O-])c1ccc(Cl)c([N+](=O)[O-])c1` [DNCB, 1-chloro-2,4-dinitrobenzene] here?
**A.** Its erythema on forearm is “almost no erythema”.

**Q.** What about the erythema on forearm ([1]; 0.2% DNCB solution) of the same compound?
**A.** The erythema on forearm was “mild but easily seen erythema”.

**Q.** What about the “rash after presensitizing application” value ([1]; 2% DNCB solution in acetone, cotton-tipped swab, two spots on forearm, first application) of the same compound?
**A.** Its value is “No rash developed”.

**Q.** And the “duration of rash after second application” value ([1]; 2% DNCB solution on forearm, two weeks after the sensitizing dose)?
**A.** The value was 3 weeks.

**Q.** And the “rash after second application” value ([1]; 2% DNCB solution on forearm, two weeks after the sensitizing dose, different spots)?
**A.** Its value is “very strong but localized rash”.

**Q.** What about the “severity and duration of subsequent outbreaks” value ([2]; 4 weeks following the first 0.2% DNCB treatment of the lip lesion) of the same compound?
**A.** The value was “much less severe and of much shorter duration than before”.

**Q.** What about the “time without any outbreak after treatment” value ([2]; after the third treatment (0.1% DNCB), to the present time) of the same compound?
**A.** The value was 6 months.

**Q.** What about the “erythema in the area of the cold sore” value ([2]; first application of 0.2% DNCB in acetone to cold sore on lower lip, left overnight) of the same compound?
**A.** The value was “mild erythema”.

**Q.** What about the “time to resolution of the treated cold sore” value ([2]; first application of 0.2% DNCB in acetone to the lip lesion, typical outbreaks before lasted 7-10 days) of the same compound?
**A.** Its value is “about 7 days”.

**Q.** What about the “time without any outbreak after treatment” value ([2]; following the second DNCB treatment at the site of a lesion) of the same compound?
**A.** The value was 6 months.

**Q.** And the “frequency of cold sore outbreaks after treatment” value ([2]; next 4 weeks following the first 0.2% DNCB treatment)?
**A.** Its value is “approximately weekly”.

**Q.** What about the “duration of each subsequent outbreak” value ([2]; outbreaks in the 4 weeks following the first 0.2% DNCB treatment) of the same compound?
**A.** The value was “one”.

**Q.** And the “inflammation and erythema with the application” value ([2]; second application of 0.2% DNCB in acetone to lip lesion, about two months after the first)?
**A.** Its value is “more severe than they had been with the first application”.

**Q.** And the “duration of the treated HSV outbreak” value ([2]; second application of 0.2% DNCB to lip lesion)?
**A.** The value was “about 7 days”.

**Q.** What about the “DTH response at the cold sore” value [2, 5] of the same compound?
**A.** The value was “moderate DTH response”.

**Q.** And the “duration of the treated HSV outbreak” value [2, 5]?
**A.** Its value is “about 10 days”.

**Q.** With `CCCCOc1c(OCCCC)c(=O)c1=O` [SADBE, 3,4-Dibutoxy-3-cyclobutene-1,2-dione] as the compound, how does the “subjects who had a rash (erythema) from the sensitization dose” value [3] read?
**A.** Its value is 17 of 28.

**Q.** What about the “Persons having an outbreak within X days after the sensitization dose” value (“Persons having an outbreak within X days” below) ([4]; <120 days, group B) of the same compound?
**A.** The value was 6 (of 16).

**Q.** What about the “Persons having an outbreak within X days” value ([4]; <120 days, group C) of the same compound?
**A.** Its value is 4 (of 15).

**Q.** And the “Days to first new outbreak after sensitization dose on upper arm” value ([4]; each patient, 2% SADBE applied to the inner aspect of the upper arm)?
**A.** The value was 37 days and 41 days and 50 days and 80 days and 91 days and >120 days (19×) and 14 days (2×) and 15 days and 18 days and 34 days.

**Q.** What about the “Average days to first outbreak after the sensitization dose” value (from here on “Average days to first outbreak”) ([4]; group B, n 16) of the same compound?
**A.** The value was 88.5 days.

**Q.** What about the “Average days to first outbreak” value ([4]; group C, n 15) of the same compound?
**A.** The value was 94.7 days.

**Q.** And the “Average days to first outbreak” value ([4]; pooled groups B + C, n 31, p=0.041 vs placebo, t test)?
**A.** Its value is 91.5* days.

**Q.** What about the “proportion who had a first outbreak between 30 and 120 days after receiving the sensitization dose” value ([4]; pooled groups B and C) of the same compound?
**A.** Its value is 5 of 26.

**Q.** And the “effect on future HSV outbreaks” value ([4]; single topical sensitization dose of 2% SADBE in DMSO on the upper arm, no application at the lesion)?
**A.** The value was “prevented future HSV outbreaks; also recorded: usually did not have a subsequent outbreak during the study time”.

**Q.** What about the “median time to the next HSV outbreak versus placebo” value ([4]; treated patients who did not develop a visible erythema at the site of application) of the same compound?
**A.** Its value is “longer median time to the next HSV outbreak than patients receiving placebo”.

**Q.** What about the “median time to the next outbreak, outbreaks occurring in the 21 days after the sensitization dose excluded” value ([4]; treatment group, counting from the day of the sensitization dose) of the same compound?
**A.** The value was “greater than 120 days”.

**Q.** And the “median time to the next outbreak counting from day 21 after the sensitization dose” value ([4]; treatment group, outbreaks in first 21 days excluded)?
**A.** The value was “greater than 99 days”.

**Q.** And the “Persons having an outbreak within X days” value ([4]; within 30 days, group B (2% SADBE in DMSO sensitization, 0.5% treatment solution))?
**A.** The value was 2 (of 16).

**Q.** And the “Persons having an outbreak within X days” value ([4]; within 30 days, group C (2% SADBE in DMSO sensitization, 0.2% treatment solution))?
**A.** Its value is 3 (of 15).

**Q.** What about the “Persons having an outbreak within X days” value ([4]; within 30 days, pooled groups B + C (of 31), p vs placebo 0.26) of the same compound?
**A.** The value was 5.

**Q.** What about the “Persons having an outbreak within X days” value ([4]; within 45 days, group B) of the same compound?
**A.** The value was 4 (of 16).

**Q.** What about the “Persons having an outbreak within X days” value ([4]; within 45 days, group C) of the same compound?
**A.** Its value is 4 (of 15).

**Q.** And the “Persons having an outbreak within X days” value ([4]; within 45 days, pooled groups B + C (of 31), p vs placebo 0.099)?
**A.** The value was 8.

**Q.** And the “Persons having an outbreak within X days” value ([4]; within 60 days, group B)?
**A.** The value was 5 (of 16).

**Q.** And the “Persons having an outbreak within X days” value ([4]; within 60 days, group C)?
**A.** Its value is 4 (of 15).

**Q.** What about the “Persons having an outbreak within X days” value ([4]; within 60 days, pooled groups B + C (of 31), p vs placebo 0.0583) of the same compound?
**A.** Its value is 9.
